Measurements taken from patent publication US5430023A, “Tripeptide antithrombotic agents” (Eli Lilly and Company, priority 1993, dated 1995).
Values joined by “and” are separate entries in the source; they are usually repeats but may differ in a detail not shown here. Equal values may be shown once. Where a name gives a salt, the structure may show the parent alone. Square brackets hold non-standard residues; d marks the D form. Peptide text beside a SMILES is read from it. * marks the point of attachment. dPhg = N[C@@H](C(=O)O)c1ccccc1; Boc = CC(C)(C)OC(=O)*

What was measured:
[1] = tested on: plasma coagulation (thromboplastin); assay: Plasma coagulation assay: prothrombin time; assay type: biochemical
Procedure: The numerical values in the table are the concentrations of the test compounds (ng/ml) required to prolong coagulation by 2-fold in the three tests. The thrombin time evaluation was carried out in plasma and separately determined in a buffer system at pH 7.5.
(§1) The data presented in Table 2 were obtained using a CoaScreener instrument from Tecan, Inc. in the assay protocols listed below.
50 μl thromboplastin (Dade)

[2] = tested on: plasma coagulation (Actin, CaCl2); assay: Plasma coagulation assay: APTT (activated partial thromboplastin time); assay type: biochemical
Procedure: (§2) The anticoagulant activity of the compounds of the invention has been determined in standard tests. The following Table 2 presents the data obtained with representative compounds of the invention in tests used to determine prothrombin time, thrombin time and activated partial thromboplastin time (APTT). The numerical values in the table are the concentrations of the test compounds (ng/ml) required to prolong coagulation by 2-fold in the three tests. The thrombin time evaluation was carried out in plasma and separately determined in a buffer system at pH 7.5.
as §1

[3] = target: T1, bovine thrombin (Bos taurus, UniProt P00735); assay: Plasma coagulation assay: thrombin time; assay type: biochemical
T1 construct: 25 μl of bovine thrombin solution (0.21 mg/ml of thrombostat powder); purchased thrombostat powder
Procedure: as §2, §1
50 μl bovine thrombin (2 NIH

[4] = target: T1, bovine thrombin; assay: Inhibition of thrombin amidase activity (chromogenic substrate), bovine thrombin; assay type: biochemical; details: apparent equilibrium constant inhibitor-thrombin, mean over a range of concentrations
Procedure: The data in the table were obtained in an assay in which thrombin hydrolyzes the chromogenic substrate, N-benzoyl-D-phenylalanyl-L-valyl-L-arginyl-p-nitroanilide.
The assay was carried out in 50 μl buffer (0.03M Tris, 0.15M NaCl, pH 7.4) with 25 μl of bovine thrombin solution (0.21 mg/ml of thrombostat powder in 0.06M Tris, 0.3M NaCl, pH 7.4) and 150 μl of an aqueous solution of the chromogenic substrate at a concentration of 0.25 mg/ml. Solutions of test compound (25 μl) at various concentrations were added. […] Standard curves were constructed by plotting free thrombin concentration against hydrolysis rate. […] The amount of free inhibitor in each assay was calculated by subtracting the number of moles of bound thrombin from the number of moles of added inhibitor (test compound).
(§3) Kass was calculated for a range of concentrations of compounds and the mean value is reported in units of liter per mole.

[5] = tested on: arterial thrombosis in the carotid artery; assay: Ferric chloride induced arterial thrombosis in the carotid artery of the rat; assay type: in vivo; details: infusion from 15 min before to 60 min after FeCl3, NA = Not active at 4 mg/kg/h or at 7 mg/kg/h, the highest doses tested
Procedure: The antithrombotic activity of representative compounds of the invention was determined in in vivo tests carried out in the rat. The test employed induced arterial thrombosis in the carotid artery of the rat and measured the infusion dose of test compound required to maintain blood flow for fifty minutes past the time of occlusion. The test was performed as follows.
Arterial thrombosis was induced in the rat by injury of the carotid artery. Topical application of a ferric chloride solution was used to injure the vessel. Male Sprague-Dawley rats (375-450 g) were anesthetized with xylazine (20 mg/kg, s.c.) followed by ketamine HCl (100 mg/kg, s.c.). Animals were laid on a water blanket in which the circulated water was maintained at 37° C. The carotid artery was approached through a midline cervical incision. Careful blunt dissection was used to expose and isolate the vessel from the carotid sheath. A silk suture was pulled underneath the artery to lift the vessel to provide clearance to insert a thermocouple underneath it. […] Small forceps were used to dip discs (3 mm dia) of Whatman No. 1 filter paper into a FeCl3 solution (35%). The discs were cut to equal size using sharpened stainless steel tubing (3 mm i.d.) chucked in a drill press. A saturated disc was placed on each carotid artery above the thermocouple. The time between FeCl3 application and the time at which temperature decreased abruptly was recorded as time to occlusion (TTO) of the vessel. The average time required for both vessels to occlude was used to represent TTO for each animal.
Test compounds were dissolved in isotonic saline. […]
The association between vessel occlusion and the abrupt temperature decrease was established by simultaneously recording the temperature and blood flow on the same recorder. […] Baseline temperature and flow velocity (determined with a Directional Pulsed Doppler Flowmeter, Model 545-C, University of Iowa Bioengineering) were recorded before application of 35% ferric chloride. […]

[6] = target: T1, bovine thrombin; assay: Thrombin time in buffer (fibrinogen instead of plasma); assay type: biochemical; details: Buffer (pH 7.5)
Procedure: as §2, §1
In the Thrombin Time determined in pH 7.4 buffer fibrinogen was used instead of plasma.

[7] = target: T2, human thrombin (Homo sapiens, UniProt P00734); assay: Inhibition of thrombin amidase activity (chromogenic substrate), human thrombin; assay type: biochemical; details: human thrombin (footnote 2)
T2 construct: purchased Inzyme Research Laboratories of South Bend, Ind
Procedure: The compounds provided by the invention (formula 1) inhibit the action of thrombin in man and animals. […] The following Table 1 lists the apparent equilibrium constant (Kass) for interaction between the test compound (inhibitor) and thrombin. The data in the table were obtained in an assay in which thrombin hydrolyzes the chromogenic substrate, N-benzoyl-D-phenylalanyl-L-valyl-L-arginyl-p-nitroanilide.
The assay was carried out in 50 μl buffer (0.03M Tris, 0.15M NaCl, pH 7.4) with 25 μl of bovine thrombin solution (0.21 mg/ml of thrombostat powder in 0.06M Tris, 0.3M NaCl, pH 7.4) and 150 μl of an aqueous solution of the chromogenic substrate at a concentration of 0.25 mg/ml. Solutions of test compound (25 μl) at various concentrations were added. Rates of hydrolysis of the substrate were measured by monitoring the reactions at 405 nm for the release of p-nitroaniline. […] The bound thrombin (bound to test compound) was calculated by subtracting the amount of free thrombin observed in each assay from the known initial amount of thrombin used in the assay. The amount of free inhibitor in each assay was calculated by subtracting the number of moles of bound thrombin from the number of moles of added inhibitor (test compound). […]
as §3

| Thrombin Amidase Kass × 10^6 [4] | Thrombin Amidase Kass × 10^6 [7] | Compound | Prothrombin Time: concentration required to prolong coagulation by 2fold [1] [ng/mL] | APTT: concentration required to prolong coagulation by 2fold [2] [ng/mL] | Thrombin Time: concentration required to prolong coagulation by 2fold [3] [ng/mL] | ED50: infusion dose required to maintain blood flow for 50 min [5] [mg/kg/h] | Thrombin Time: concentration required to prolong coagulation by 2fold [6] [ng/mL] | Thrombin Amidase Kass × 10^6 ([4]; diacetate salt) |
| --- | --- | --- | --- | --- | --- | --- | --- | --- |
| 52 × 10^6 1/mole |  | CC(=O)O.CC(=O)O.CC(C)(C)OC(=O)N[C@@H](C(=O)N1CCC[C@H]1C(=O)N[C@H](C=O)CCCNC(=N)N)c1cccc2ccccc12 [Boc-D-1-naphthylglycyl, N-Boc-D-1-naphthylglycyl-Pro-Arg-H diacetate] | 1225 | 3100 | 230 | 6.4 | 105 |  |
|  |  | CC(C)(C)OC(=O)N[C@@H](C(=O)N1CCC[C@H]1C(=O)N[C@H](C=O)CCCNC(=N)N)c1ccccc1 [Boc-D-phenylglycyl, N-(t-Butyloxycarbonyl)-D-phenylglycyl-L-Prolyl-L-Arginine aldehyde (Boc-D-Phg-Pro-Arg-H) diacetate salt] (Boc-[dPhg]-Pro-Arg-aldehyde) | 667 | 1169 | 110 | 2.9 | 118 | 88 × 10^6 1/mole and 73 × 10^6 1/mole |
|  | 56 × 10^6 1/mole | N=C(N)NCCCC(C=O)NC(=O)C1CCCN1C(=O)C1CC2CCCCC2CN1 [D-3-(4aS, 8aS)-Piq-(L)-Pro-(L)-Arg-H] |  |  |  |  |  |  |
|  | 214 × 10^6 1/mole | D-3 -(4aR, 8aR)-Piq-(L)-Pro-(L)-Arg-H |  |  |  |  |  |  |
